Tests used:
HDAC 6 = biological target: T1, HDAC 6 (Homo sapiens, UniProt Q9UBN7); test: Caliper HDAC inhibitor profiling assay (microfluidic mobility-shift), HDAC 6; type: biochemical; conditions: 1 hour at room temperature, read-out: IC50 (μM) HDAC6
T1 sequence (Q9UBN7 1-1215): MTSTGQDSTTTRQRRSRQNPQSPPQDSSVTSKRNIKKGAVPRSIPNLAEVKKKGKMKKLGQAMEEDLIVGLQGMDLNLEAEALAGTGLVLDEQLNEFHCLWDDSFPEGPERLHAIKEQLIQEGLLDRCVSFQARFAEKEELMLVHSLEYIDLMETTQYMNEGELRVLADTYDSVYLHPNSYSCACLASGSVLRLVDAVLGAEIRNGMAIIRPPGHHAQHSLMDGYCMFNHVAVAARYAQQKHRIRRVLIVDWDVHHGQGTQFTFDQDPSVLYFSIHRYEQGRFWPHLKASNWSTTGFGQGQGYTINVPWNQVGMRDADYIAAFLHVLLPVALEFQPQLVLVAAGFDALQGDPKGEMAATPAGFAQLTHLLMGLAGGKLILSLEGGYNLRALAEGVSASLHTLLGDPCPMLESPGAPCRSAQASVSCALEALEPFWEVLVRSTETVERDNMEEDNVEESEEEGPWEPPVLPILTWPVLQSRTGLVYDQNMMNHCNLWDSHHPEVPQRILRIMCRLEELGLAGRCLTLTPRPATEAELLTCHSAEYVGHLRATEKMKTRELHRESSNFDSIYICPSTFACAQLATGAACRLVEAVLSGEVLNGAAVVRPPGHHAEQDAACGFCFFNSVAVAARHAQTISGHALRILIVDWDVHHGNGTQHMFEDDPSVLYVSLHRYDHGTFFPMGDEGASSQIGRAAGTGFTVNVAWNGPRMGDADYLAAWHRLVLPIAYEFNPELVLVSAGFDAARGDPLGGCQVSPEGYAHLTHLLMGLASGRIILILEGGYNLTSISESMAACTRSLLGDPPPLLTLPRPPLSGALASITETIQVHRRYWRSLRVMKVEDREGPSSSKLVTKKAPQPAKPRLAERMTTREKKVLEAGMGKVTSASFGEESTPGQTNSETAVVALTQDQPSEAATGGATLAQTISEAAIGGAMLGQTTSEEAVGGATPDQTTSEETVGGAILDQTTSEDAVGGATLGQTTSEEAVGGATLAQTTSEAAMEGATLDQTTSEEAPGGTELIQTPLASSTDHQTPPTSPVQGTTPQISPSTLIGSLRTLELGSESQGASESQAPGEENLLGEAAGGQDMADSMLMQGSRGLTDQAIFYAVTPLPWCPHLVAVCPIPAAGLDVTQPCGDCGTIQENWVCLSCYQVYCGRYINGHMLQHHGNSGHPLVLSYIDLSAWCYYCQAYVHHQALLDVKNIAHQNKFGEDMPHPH
Description: (§1) The activity of the compounds of the invention against HDAC 3 (Class I) and HDAC 6 (Class II) can be determined using the Caliper Life Sciences HDAC inhibitor profiling assay, which utilises microfluidic mobility-shift detection.
(§2) Reaction buffer: 25 mM Tris/Cl, pH 8.0, 137 mM NaCl, 2.7 mM KCl, 1 mM MgCl2, 0.1 mg/ml BSA (fatty acid free).
(§3) Stop Buffer: 100 mM HEPES, pH 7.5, 10 mM EDTA, 0.04% Brij-35, 0.25% CR-3, and 2.5 μM Trichostatin A.
(§4) Stopped reactions were assembled in microtiter plate wells by adding 1 μL of the inhibitor compound in DMSO, 15 μL 2× Enzyme, and 15 μL 2× peptide. The reactions were incubated for 1 hour at room temperature, stopped with the addition of 45 μL Stop Solution, and read on the LabChip EZ Reader®. The curves were fit with sigmoidal dose response algorithm using GraphPad Prism.

HDAC 3 = HDAC 3 (Homo sapiens, UniProt O15379); test: Caliper HDAC inhibitor profiling assay (microfluidic mobility-shift), HDAC 3; type: biochemical; conditions: 1 hour at room temperature, read-out: IC50 (μM) HDAC3
Description: as §1, §2, §3, §4

HDAC 3, sequence (O15379 whole entry, species assumed): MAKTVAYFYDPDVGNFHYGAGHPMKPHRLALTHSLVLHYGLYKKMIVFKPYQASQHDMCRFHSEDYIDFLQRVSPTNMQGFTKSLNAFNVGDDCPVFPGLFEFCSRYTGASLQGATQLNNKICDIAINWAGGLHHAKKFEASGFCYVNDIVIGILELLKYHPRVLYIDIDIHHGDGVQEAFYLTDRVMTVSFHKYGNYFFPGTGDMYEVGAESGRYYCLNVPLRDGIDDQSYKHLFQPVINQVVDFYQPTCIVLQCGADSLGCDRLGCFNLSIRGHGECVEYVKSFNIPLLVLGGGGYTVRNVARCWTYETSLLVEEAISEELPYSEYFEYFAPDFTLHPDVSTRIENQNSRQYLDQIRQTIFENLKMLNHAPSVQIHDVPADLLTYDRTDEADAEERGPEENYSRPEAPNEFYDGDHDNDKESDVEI
HDAC 3, sequence (Q9Y618 395-489 partner limits assumed, species assumed): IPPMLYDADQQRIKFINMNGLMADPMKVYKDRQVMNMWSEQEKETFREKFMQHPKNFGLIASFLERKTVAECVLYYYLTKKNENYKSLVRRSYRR

melting point	IC50 (HDAC 6) [µM]	IC50 (HDAC 3) [µM]	SMILES
89 to 91 °C	> 10	0.51	C=C1CN(Cc2ccc(C(=O)Nc3ccccc3N)cc2)C(CC(=O)N2CCCCC2)c2ccccc21 (stereo not drawn) [Example 2, N-(2-Aminophenyl)-4-{[4-methylene-1-(2-oxo-2-piperidin-1-ylethyl)-3,4-dihydroisoquinolin-2(1H)-yl]methyl}benzamide]
196 to 198 °C	> 10	0.27	C=C1CN(Cc2ccc(C(=O)Nc3ccccc3N)cc2)C(=O)c2ccc(C(=O)OC)cc21 [Example 13, Methyl 2-(4-{[(2-aminophenyl)amino]carbonyl}benzyl)-4-methylene-1-oxo-1,2,3,4-tetrahydroisoquinoline-6-carboxylate]
–	> 10	0.67	C=C1CN(Cc2ccc(C(=O)Nc3ccccc3N)cc2)C(CC(=O)NCCO)c2ccccc21 (stereo not drawn) [Example 10, N-(2-Aminophenyl)-4-{[1-{2-[(2-hydroxyethyl)amino]-2-oxoethyl}-4-methylene-3,4-dihydroisoquinolin-2(1H)-yl]methyl}-benzamide]
151 to 153 °C	> 10	0.98	C=C1CN(Cc2ccc(C(=O)Nc3ccccc3N)cc2)C(CC(=O)OC)c2ccccc21 (stereo not drawn) [Example 3, Methyl [2-(4-{[(2-aminophenyl)amino]carbonyl}benzyl)-4-methylene-1,2,3,4-tetrahydroisoquinolin-1-yl]acetate]
–	> 10	2.7	C=C1CN(Cc2ccc(C(=O)Nc3ccccc3N)cc2)C(CC(=O)c2ccccc2)c2ccccc21 (stereo not drawn) [Example 5, N-(2-Aminophenyl)-4-{[4-methylene-1-(2-oxo-2-phenylethyl)-3,4-dihydroisoquinolin-2(1H)-yl]methyl}benzamide]
93 to 95 °C	> 10	0.31	C=C1CN(Cc2ccc(C(=O)Nc3ccccc3N)cc2)C(CC#N)c2ccccc21 (stereo not drawn) [Example 6, N-(2-Aminophenyl)-4-{[1-(cyanomethyl)-4-methylene-3,4-dihydroisoquinolin-2(1H)-yl]methyl}benzamide]
–	> 10	0.56	C=C1CN(Cc2ccc(C(=O)Nc3ccccc3N)cc2)C(CC(=O)N2CCN(C)CC2)c2ccccc21 (stereo not drawn) [Example 11, N-(2-Aminophenyl)-4-{[4-methylene-1-[2-(4-methylpiperazin-1-yl)-2-oxoethyl]-3,4-dihydroisoquinolin-2(1H)-yl]methyl}benzamide]
172 to 174 °C (dec.)	> 10	0.23	C=C1CN(Cc2ccc(C(=O)Nc3ccccc3N)cc2)C(=O)c2ccc(C(=O)NCCN)cc21 [Example 14, N-(2-Aminoethyl)-2-(4-{[(2-aminophenyl)amino]carbonyl}benzyl)-4-methylene-1-oxo-1,2,3,4-tetrahydroisoquinoline-6-carboxamide]
111 to 113 °C	> 10	0.89	C=C1CN(Cc2ccc(C(=O)Nc3ccccc3N)cc2)C(CC(=O)OCC)c2ccccc21 (stereo not drawn) [Example 1, Ethyl [2-(4-{[(2-aminophenyl)amino]carbonyl}benzyl)-4-methylene-1,2,3,4-tetrahydroisoquinolin-1-yl]acetate]
213 to 215 °C	> 10	1.4	C=C1CN(S(=O)(=O)c2ccc(C(=O)Nc3ccccc3N)cc2)C(CC#N)c2ccccc21 (stereo not drawn) [Example 15]
135 to 137 °C	> 10	0.35	C=C1CN(Cc2ccc(C(=O)Nc3ccccc3N)cc2)C(CC(=O)Nc2ccccc2N)c2ccccc21 (stereo not drawn) [Example 8, N-(2-Aminophenyl)-4-{[1-{2-[(2-aminophenyl)amino]-2-oxoethyl}-4-methylene-3,4-dihydroisoquinolin-2(1H)-yl]methyl}benzamide]
99 to 101 °C	> 10	0.26	C=C1CN(Cc2ccc(C(=O)Nc3ccccc3N)cc2)C(CC(=O)N2CCOCC2)c2ccccc21 (stereo not drawn) [Example 4]
